Results on 17 molecules are retold here after patent US20230027854A1, “ISOXAZOLE DERIVATIVES TARGETING TACC3 AS ANTICANCER AGENTS” (A2A Pharmaceuticals, inc., priority 2019, published 2023).

The test system of this assay is JIMT-1 cells. Nature of the assay: JIMT-1 cell growth inhibition / cell viability (SRB assay). Type of assay: cell-based. The conditions noted are these: Homo sapiens; JIMT-1 cells; read-out: IC50. On the procedure: The ability of the compounds of the present disclosure to treat TACC3-mediated cancers, or associated symptoms or complications thereof, was determined using the following procedures. The compounds of the present disclosure were tested for their activity against cell death induction using a JIMT-1 cell line, which was a cell line having high level of TACC3. The concentration of each compound that was required for half-maximal inhibition of cell proliferation was calculated by a GraphPad Prism (GraphPad Software).
As for `COc1ccc(-c2cc(Nc3ccnc(N4CCC(F)CC4)n3)on2)cc1` [Compound 38, N-(2-(4-fluoropiperidin-1-yl)pyrimidin-4-yl)-3-(4-methoxyphenyl)isoxazol-5-amine], the IC50 came to 0.13 µM.

In the case of `Cc1ccc(-c2cc(Nc3ccnc(N4CCOCC4)n3)on2)cc1` [Compound 13, N-(2-morpholinopyrimidin-4-yl)-3-(p-tolyl)isoxazol-5-amine], the IC50 was determined as 0.64 µM.

On to `COc1ccc(-c2cc(Nc3ccnc(N4CCN(CCO)CC4)n3)on2)cc1` [Compound 47, 2-(4-(4-((3-(4-methoxyphenyl)isoxazol-5-yl)amino)pyrimidin-2-yl)piperazin-1-yl)ethan-1-ol], for which the IC50 is > 10 µM.

Consider `CCCOc1ccc(-c2cc(Nc3ccnc(N4CCOCC4)n3)on2)cc1` [Compound 10, N-(2-morpholinopyrimidin-4-yl)-3-(4-propoxyphenyl)isoxazol-5-amine], for which the IC50 was > 10 µM.

Regarding `FC(F)(F)Oc1ccc(-c2cc(Nc3ccnc(N4CCOCC4)n3)on2)cc1` [Compound 19, N-(2-morpholinopyrimidin-4-yl)-3-(4-(trifluoromethoxy)phenyl)isoxazol-5-amine], the IC50 was > 10 µM.

In the case of `COc1ccccc1-c1cc(Nc2ccnc(N3CCOCC3)n2)on1` [Compound 7, 3-(2-methoxyphenyl)-N-(2-morpholinopyrimidin-4-yl)isoxazol-5-amine], the IC50 turned out to be 8.27 µM.

On to `FC(F)(F)c1ccc(-c2cc(Nc3ccnc(N4CCOCC4)n3)on2)cc1` [Compound 16, N-(2-morpholinopyrimidin-4-yl)-3-(4-(trifluoromethyl)phenyl)isoxazol-5-amine], for which the IC50 was > 10 µM.

With `CCOc1ccc(-c2cc(Nc3ccnc(N4CCOCC4)n3)on2)cc1` [Compound 9, 3-(4-ethoxyphenyl)-N-(2-morpholinopyrimidin-4-yl)isoxazol-5-amine], the IC50 was 0.81 µM.

Take `Fc1ccc(-c2cc(Nc3ccnc(N4CCOCC4)n3)on2)cc1` [Compound 11, 3-(4-fluorophenyl)-N-(2-morpholinopyrimidin-4-yl)isoxazol-5-amine]: the IC50 is > 10 µM.

As for `c1cc(Nc2cc(-c3ccc4c(c3)OCO4)no2)nc(N2CCOCC2)n1` [Compound 26, 3-(benzo[d][1,3]dioxol-5-yl)-N-(2-morpholinopyrimidin-4-yl)isoxazol-5-amine], the IC50 stood at 0.87 µM.

For `COc1ccc(-c2cc(Nc3ccnc(N4CCOCC4)n3)on2)cn1` [Compound 27, 3-(6-methoxypyridin-3-yl)-N-(2-morpholinopyrimidin-4-yl)isoxazol-5-amine], the IC50 is 7.3 µM.

Take `Clc1ccc(-c2cc(Nc3ccnc(N4CCOCC4)n3)on2)cc1` [Compound 12, 3-(4-chlorophenyl)-N-(2-morpholinopyrimidin-4-yl)isoxazol-5-amine]: the IC50 is > 10 µM.

As to `COc1cccc(-c2cc(Nc3ccnc(N4CCOCC4)n3)on2)c1` [Compound 6, 3-(3-methoxyphenyl)-N-(2-morpholinopyrimidin-4-yl)isoxazol-5-amine], the IC50 was 3.44 µM.

`COc1ccc(-c2cc(Nc3nc(N4CCC(F)CC4)ncc3F)on2)cc1` [Compound 60, N-(5-fluoro-2-(4-fluoropiperidin-1-yl)pyrimidin-4-yl)-3-(4-methoxyphenyl)isoxazol-5-amine]: the IC50 worked out at 0.54 µM.

In the case of `CN(C)c1ccc(-c2cc(Nc3ccnc(N4CCC(F)CC4)n3)on2)cc1` [Compound 64, 3-(4-(dimethylamino)phenyl)-N-(2-(4-fluoropiperidin-1-yl)pyrimidin-4-yl)isoxazol-5-amine], the IC50 was 0.157 µM.

As to `COc1ccc(-c2cc(Nc3ccnc(N4C5CCC4COC5)n3)on2)cc1F` [Compound 66, N-(2-(3-oxa-8-azabicyclo[3.2.1]octan-8-yl)pyrimidin-4-yl)-3-(3-fluoro-4-methoxyphenyl)isoxazol-5-amine], the IC50 amounted to 0.053 µM.

In the case of `COc1ccc(-c2cc(Nc3ccnc(N4CCC(C(F)(F)F)CC4)n3)on2)cc1` [Compound 44, 3-(4-methoxyphenyl)-N-(2-(4-(trifluoromethyl)piperidin-1-yl)pyrimidin-4-yl)isoxazol-5-amine], the half-maximal inhibitory concentration (IC50) amounted to 0.056 µM.
